Series [1] in a line: Cytotoxicity determination (MTT). In kind it is cell-based, mouse. The settings on record: mouse, B16V mouse melanoma cells; Table 3, repeat of the Table 1 values; read-out: IC50 cytotox. The procedure:
(§1) B16V mouse melanoma cells are disseminated in a 96-well microtitre plate in a concentration of 2×10^4 cells/well (B16V). After cultivation for 24 h at 37° C. and 5% CO2 in RPMI medium (B16V cells), enriched with 10% foetal calf serum, the medium is drawn off. Various concentrations of the test substances, dissolved in fresh medium enriched with 5% foetal calf serum, are added and incubated for a further 48 h. In parallel the cells are incubated with SDS as standard in concentrations of 0.01 mM, 0.1 mM, 1 mM and 10 mM. After incubation the medium is drawn off and the cells are incubated for 2 h with MTT (3-[4,5-dimethylthiazol-2-yl]2,5-diphenyl tetrazolium bromide). After extraction of the dye (MTT) with acetic acid SDS in DMSO (10 min), the absorption (A) is measured at 570 nm.
(§2) The mean and standard deviation of the controls, blanks and samples are calculated. The mean of the blank is subtracted from the means of the controls and samples. The viability of the cells is stated as a percentage relative to the controls (100%):
(§3) Viability (%)=[(Atest compound/Acontrol)×100]
(§4) The IC50 (mean inhibitory concentration) indicates the test substance concentration at which 50% of the cells are vital.

For series [2], the system named is B16V mouse melanoma cells. The experiment in a line: Cytotoxicity determination (MTT). In kind it is cell-based. The settings on record: MTT viability, 48 h incubation, concentration at which 50% of the cells are vital. The procedure:
as §1, §2, §3, §4

The test system of series [3] is B16V mouse melanoma cells. The experiment in a line: Pigmenting effect (stimulation of pigmentation). The format is cell-based. The protocol: mouse melanoma cells are disseminated in a 96-well microtitre plate in a concentration of 5×10^3 cells/well. After cultivation for 24 h at 37° C. and 5% CO2 in RPMI medium, enriched with 10% foetal calf serum, various concentrations of the test substances and 10 nM α-MSH (α-melanocyte stimulating hormone) are added and incubated for a further 96 h. […] The stimulation of pigmentation in the presence of the test compounds was calculated using the following equation: Stimulation of pigmentation (%)=[(A test compound/A control)×100]-100 From the stimulation of pigmentation (%) in a series of dilutions of test compounds, the EC50 for each test compound was calculated. This is the concentration of a test compound at which pigmentation is stimulated by 50%.

A further series has as its system tyrosinase. Particulars: of 27 flavonoids tested; cited from earlier work.
The next series concerns male rats. Particulars: cited from earlier work.
In series [4] the test system is B16V melanoma cells. The settings on record: cited from earlier work.
Series [5] deals with B16V melanoma cells. The settings on record: cited from earlier work. This is another data set of the same source.
Series [6] has as its system melanoma cells. The settings on record: cited from earlier work.
Series [7] concerns melanoma cells. Particulars: cited from earlier work. This is another data set of the same source.
A further series relates to melanin synthesis. The settings on record: cited from earlier work.
For the next series, the system named is glucose absorption. Particulars: cited from earlier work.
Setting [8] is: 96 h with 10 nM α-MSH, concentration at which pigmentation is stimulated by 50%, non-cytotoxic concentration range.
Where [9] appears, read: Table 3, repeat of the Table 2 values.
The mark [10] stands for this setting: Mus musculus, read-out: EC50 pigm. effect, Table 3, repeat of the Table 2 values.
Setting [11] is: Mus musculus, 96 h, 96 h with 10 nM α-MSH, concentration at which pigmentation is stimulated by 50%, non-cytotoxic concentration range.

Read-outs that look alike come from different tables or passages of the source.

The values that follow come from US20080305054A1, “Use of Glycosylated Flavanones for the Browning of Skin or Hair” (SYMRISE GMBH & CO. KG, priority 2004, published 2008).

For `O=c1cc(-c2ccc(O)c(O)c2)oc2cc(O)cc(O)c12` [Luteolin], the IC50 (in general, the concentration that gives 50% inhibition) at 48 h in series [1] amounted to 37 µM. Moreover, in [2] (Mus musculus, read-out: IC50), the IC50 was 37 µM. The EC50 (as a rule, the concentration needed to bring the measured effect to its halfway point) in series [3] (setting [8]) is “inactive”. Also, in series [3] (setting [9]), the EC50 pigm. effect result was “inactive”. Further, the tyrosinase inhibition entry in the series on tyrosinase is “tyrosinase inhibition”.

As for theaflavinmonogallate, the tyrosinase inhibition entry with tyrosinase is recorded as “tyrosinase inhibition”.

`C[C@@H]1O[C@@H](O[C@H]2[C@H](Oc3cc(O)c4c(c3)OC(c3ccc(O)cc3)CC4=O)O[C@H](CO)[C@@H](O)[C@@H]2O)[C@H](O)[C@H](O)[C@H]1O` (stereo partly drawn) [Naringin]: in [1], the IC50 at 48 h is over 10000 µM. The compound further came in with an IC50 in [2] of over 10000 µM. Also, the EC50 in [3] (setting [10]) was determined as 0.5 µM.

As for `O=c1c(O)c(-c2ccc(O)cc2O)oc2cc(O)cc(O)c12` [morin], the tyrosinase inhibition result in the series with tyrosinase is on record as “tyrosinase inhibition”.

In the case of `O=c1c(O)c(-c2ccc(O)c(O)c2)oc2cc(O)cc(O)c12` [Quercetin], in series [1], the 50% inhibitory concentration (IC50) at 48 h amounted to 48 µM. The IC50 in series [2] (Mus musculus, read-out: IC50) was 48 µM. The concentration for a half-maximal effect (EC50) stood at 15 µM in [3] (Mus musculus, 96 h with 10 nM α-MSH, concentration at which pigmentation is stimulated by 50%, non-cytotoxic concentration range, read-out: EC50) and 15 µM in series [3] (Mus musculus, Table 3, repeat of the Table 2 values, read-out: EC50 pigm. effect). In addition, in the series with tyrosinase, the tyrosinase inhibition result is “tyrosinase inhibition”. Moreover, in the series on male rats, the hepatotoxic effect result was “hepatotoxic effect”. Besides, the “melanin relative to the untreated control” value with B16V melanoma cells [4] (maximum non-cytotoxic concentration of 0.003 mM) was “+38%”. For the same compound, the maximum non-cytotoxic concentration with B16V melanoma cells [5] is on record as 0.003 mM.

For `OC[C@H]1O[C@@H](Oc2cc3c(O)cc(O)cc3[o+]c2-c2ccc(O)c(O)c2)[C@H](O)[C@@H](O)[C@@H]1O` [cyanidin-3-β-D-glucoside], in the series on melanoma cells [6], the “effect on melanin synthesis” value is “stimulates melanin synthesis”.

Consider `O=c1c(O)cc([C@H]2Oc3cc(O)cc(O)c3C[C@H]2O)cc2c([C@H]3Oc4cc(O)cc(O)c4C[C@H]3O)cc(O)c(O)c12` [theaflavin], for which the tyrosinase inhibition entry in the series on tyrosinase is given as “tyrosinase inhibition”.

For `COc1ccc([C@@H]2CC(=O)c3c(O)cc(O[C@@H]4O[C@H](CO[C@@H]5O[C@@H](C)[C@H](O)[C@@H](O)[C@H]5O)[C@@H](O)[C@H](O)[C@H]4O)cc3O2)cc1O` [Hesperidin], the IC50 at 48 h in series [1] amounted to 1500 µM. In addition, in series [2] (Mus musculus, 48 h), the IC50 was over 1000 µM. Also, the EC50 in series [3] (setting [11]) is under 2 µM; in series [3] (setting [10]), 1.5 µM.

On to `COc1ccc([C@@H]2CC(=O)c3c(O)cc(O)cc3O2)cc1O` [Hesperetin], for which the IC50 at 48 h in series [1] amounted to 40 µM. For the same compound, the IC50 in series [2] (Mus musculus, read-out: IC50) was 40 µM. Also, the EC50 result in series [3] (setting [8]) is “inactive”. In [3] (setting [9]), the EC50 pigm. effect result is “inactive”.

Consider `O=C1C[C@@H](c2ccc(O)cc2)Oc2cc(O)cc(O)c21` [Naringenin], for which the IC50 at 48 h in [1] turned out to be 30 µM. The IC50 in series [2] (Mus musculus, read-out: IC50) was found to be 30 µM. Besides, the EC50 result in series [3] (setting [8]) is “inactive”. Moreover, the EC50 pigm. effect entry in [3] (setting [9]) was “inactive”.

Consider `O=c1c(-c2ccc(O)cc2)coc2cc(O)ccc12` [daidzein], for which, in the series with melanoma cells [7], the “effect on melanin production / melanogenesis” value is on record as “no effect on melanogenesis”.

For the compound `O=c1c(O)c(-c2ccc(O)cc2)oc2cc(O)cc(O)c12` [Kaempferol], the IC50 at 48 h in series [1] was found to be 43 µM. The 50% inhibitory concentration (IC50) in series [2] (Mus musculus, read-out: IC50) came out at 43 µM. Also, in [3] (setting [8]), the EC50 entry was “inactive”. Besides, the EC50 pigm. effect result in series [3] (setting [9]) was “inactive”. The tyrosinase inhibition result in the series on tyrosinase is “tyrosinase inhibition”.

On to `COc1ccc(C2CC(=O)c3c(O)cc(OC4OC(CO)C(O)C(O)C4OC4OC(C)C(O)C(O)C4O)cc3O2)cc1O` (stereo not drawn) [Neohesperidin], for which the half-maximal inhibitory concentration (IC50) at 48 h in series [1] was over 4000 µM. In series [2], this compound registered an IC50 of over 4000 µM. Besides, the EC50 in [3] (setting [11]) is under 2 µM; in series [3] (setting [10]), 1 µM.

Turning to `O=C(CCc1ccc(O)cc1)c1c(O)cc(O)cc1O` [phloretin], in the series with B16V melanoma cells [4] (non-cytotoxic concentrations), the effect on melanogenesis entry is given as “ineffective”.

For `O=c1c(-c2ccc(O)cc2)coc2cc(O)cc(O)c12` [genistein], the “effect on melanin production / melanogenesis” value with melanoma cells [7] is on record as “increases melanin production”.

For `O=c1c(O)c(-c2cc(O)c(O)c(O)c2)oc2cc(O)cc(O)c12` [myricetin], in the series on tyrosinase, the tyrosinase inhibition entry is on record as “tyrosinase inhibition”.

As for `O=C(O[C@@H]1Cc2c(O)cc(O)cc2O[C@@H]1c1cc(O)c(O)c(O)c1)c1cc(O)c(O)c(O)c1` [epigallocatechin gallate], the “effect on melanin synthesis” value in the series on melanin synthesis is “inhibition of melanin synthesis”.

For the compound `O=c1cc(-c2ccc(O)cc2)oc2cc(O)cc(O)c12` [Apigenin], the IC50 at 48 h in series [1] came out at 33 µM. The IC50 in [2] (Mus musculus, read-out: IC50) is 33 µM. In series [3] (setting [8]), the EC50 result was “inactive”. In addition, the EC50 pigm. effect entry in series [3] (setting [9]) was “inactive”.

For `O=C(CCc1ccc(O)cc1)c1c(O)cc(O)cc1O[C@@H]1O[C@H](CO)[C@@H](O)[C@H](O)[C@H]1O` [Phloridzin], in the series on B16V melanoma cells [4] (1 mM), the “melanin relative to the untreated control” value is “+81%”. In the series with B16V melanoma cells [5], the cytotoxicity entry is on record as “no cytotoxicity”. Further, in the series with glucose absorption, the “inhibition of glucose absorption” value is “inhibitor of glucose absorption” and the toxicity to reproduction result is recorded as “toxic to reproduction”.
